Like-named read-outs stand apart in the source and are kept apart here.
Assays:
[1] = tested on: SD male rats; type: in vivo; conditions: for Toxicokinetic: Cmax and AUC versus dose: male SD rats, 1, 3, 10 mg/kg; for Toxicokinetic: accumulation: male SD rats, continuously administered twice a week for 2 weeks; for Safety Window (based on dosage): rat MTD for 2 weeks vs efficacy dose in db/db mice; for Safety Window (based on exposure AUClast) / dose at which decrease of the body weight is observed after the first administration: rat, in vivo
Procedure: (§1) 77 SD male rats (SPF grade) are selected and randomly divided into 10 groups based on body weight. Group 1 is the vehicle control group, including 5 animals. […] Group 5 to Group 7 are the groups administrated with the test substance 1; and Group 8 to Group 10 are the groups administrated with the test substance 2, each group including 8 animals, wherein 5 animals for primary test, and 3 animals for toxicokinetics test, and the administration dose is 1, 3 and 10 mg/kg respectively. Each of the above groups is continuously administered twice a week for 2 weeks (administrating at Day 1, Day 5, Day 8, Day 12 and Day 15).
(§2) During the experiment, the cage condition monitoring, detailed clinical observations, determination of the food consumption, determination of body weight, measurement of the blood biochemical and hematology indicator, investigation of the gross anatomy, weighing of the organ, studying on toxicokinetic are performed on all the groups of the animals.
(§3) Original data during each time period is tabulated. The average values and standard deviations and/or group change are calculated for each assay endpoint based on the group and sex. For each endpoint, the administrated group will be compared with the control group in the following aspect. A logarithmic conversion is performed to the endpoint data as desired prior to the start of the specific analyses.

[2] = type: in vivo; conditions: rat, in vivo, male SD rats
Procedure: as §1, §2, §3

[3] = in vivo
[4] = Pharmacokinetics in cynomolgus monkeys; conditions: cynomolgus monkey, in vivo
Procedure: After subcutaneous or intravenous administration to cynomolgus monkeys, plasma is collected and the drug concentration in plasma is determined to illustrate the in vivo pharmacokinetic properties of the compound according to the present invention. The compound is dissolved in 1.4% PG in 8 mM Na2HPO4 Buffer (pH 7.39), and filtered through a filter membrane (PTFE, 0.45 μm) to obtain 25 and 12.5 nmol/mL solution of the compound respectively. The obtained solutions are administered to cynomolgus monkeys (4-8 kg) at a dose of 25 nmol/kg subcutaneously (s.c.) or 12.5 nmol/kg intravenously (i.v.). […] The blood samples are centrifuged at 2200 g for 10 minutes to obtain a plasma, which is stored at −90° C. to −60° C. for further analysis and assay.
70.0 μL of thawed plasma sample is taken. 70 μL of acetonitrile (containing 1 ng/ml of the internal standard) is added to precipitate protein. The mixture is vortexed for 1 minute, and centrifuged at 14000 rpm for 10 minutes. 60.0 μL of the supernatant is taken, into which 60.0 μL of 0.5% aqueous formic acid solution is added. The mixture is vortexed for 5 minutes. 10 μL of the mixture solution is sampled and injected into the LC-MS/MS to determine the drug concentration in plasma.
Based on the drug concentration in plasma of the compounds in the cynomolgus monkeys, the pharmacokinetic parameters are calculated by applying the software Winnolin 8.2 in a non-compartmental model, and the results are shown in Table 9 and Table 10 below.

[5] = Pharmacokinetics in C57 mice; conditions: in vivo
Procedure: After subcutaneous or intravenous administration to C57 mice, plasma is collected and the drug concentration in plasma is determined to illustrate the in vivo pharmacokinetic properties of the compound according to the present invention. […] 20.0 μL of thawed plasma sample is taken. 20 μL of 50% aqueous methanol solution (containing 100 ng mL^−1 internal standard) and 60 μL of acetonitrile are added sequentially to precipitate protein. The mixture is vortexed for 5 minutes, and centrifuged at 3700 rpm for 8 minutes. 50.0 μL of the supernatant is taken, into which 50.0 μL of 0.5% aqueous formic acid solution is added. The mixture is vortexed for 5 minutes. 50 μL of the mixture solution is sampled and injected into the LC-MS/MS to determine the drug concentration in plasma.

[6] = Pharmacokinetics following single administration in SD rat; design: species or system SD rats; conditions: in vivo, sc, 50 nmol/kg
Procedure: The compound is administrated to male SD rats (230-268 g, n=3) at a dose of 50.0 nmol/kg (s.c.) or 25.0 nmol/kg (i.v.). […] 30.0 μL of thawed plasma sample is taken. 150 μL of acetonitrile solution (containing 5 ng mL^−1 Verapamil, 50 ng·mL^−1 Glibenclamide, 200 ng·mL^−1 Tolbutamide and 200 ng·mL^−1 Diclofenac) are added to precipitate protein. The mixture is vortexed for 5 minutes, and centrifuged at 3700 rpm for 8 minutes. 70.0 μL of the supernatant is taken, into which 70.0 μL of 0.5% aqueous formic acid solution is added. The mixture is vortexed for 5 minutes. 15 μL of the mixture solution is sampled and injected into the LC-MS/MS to determine the drug concentration in plasma. 20.0 μL of thawed plasma sample is taken. 60 μL of acetonitrile solution (containing 5 ng mL^−1 Verapamil, 50 ng·mL^−1 Glibenclamide, 200 ng·mL^−1 Tolbutamide and 200 ng·mL^−1 Diclofenac) are added to precipitate protein. […] The mixture is vortexed for 10 minutes. 10.0 μL of the mixture solution is sampled and injected into the LC-MS/MS to determine the drug concentration in plasma. 30.0 μL of thawed plasma sample is taken. 150 μL of acetonitrile solution (containing 5 ng mL^−1 Verapamil, 50 ng mL^−1 Glibenclamide, 200 ng·mL^−1 Tolbutamide and 200 ng·mL^−1 Diclofenac) are added to precipitate protein. The mixture is vortexed for 5 minutes, and centrifuged at 3700 rpm for 8 minutes. 70.0 μL of the supernatant is taken, into which 70.0 μL of 0.5% aqueous formic acid solution is added. The mixture is vortexed for 5 minutes. 10.0 μL of the mixture solution is sampled and injected into the LC-MS/MS to determine the drug concentration in plasma.

[7] = continuously administered twice a week for 2 weeks

CC[C@H](C)[C@H](NC(=O)[C@H](CC(C)C)NC(=O)[C@H](Cc1c[nH]c2ccccc12)NC(=O)[C@H](CCC(N)=O)NC(=O)[C@@H](NC(=O)[C@H](Cc1ccccc1)NC(=O)[C@H](C)NC(=O)[C@H](CCCCNC(=O)COCCOCCNC(=O)COCCOCCNC(=O)CC[C@H](NC(=O)CCCCCCCCCCCCCCCCCCC(=O)O)C(=O)O)NC(=O)[C@H](CCC(N)=O)NC(=O)[C@H](C)NC(=O)[C@@H](NC(=O)[C@H](CCCCN)NC(=O)[C@H](CC(=O)O)NC(=O)[C@H](CC(C)C)NC(=O)C(C)(C)NC(=O)[C@@H](NC(=O)[C@H](CO)NC(=O)[C@H](Cc1ccc(O)cc1)NC(=O)[C@H](CC(=O)O)NC(=O)[C@H](CO)NC(=O)[C@@H](NC(=O)[C@H](Cc1ccccc1)NC(=O)[C@@H](NC(=O)CNC(=O)[C@H](CCC(=O)O)NC(=O)C(C)(C)NC(=O)[C@@H](N)Cc1ccc(O)cc1)[C@@H](C)O)[C@@H](C)O)[C@@H](C)CC)[C@@H](C)CC)C(C)C)C(=O)N[C@@H](C)C(=O)NCC(=O)NCC(=O)N1CCC[C@H]1C(=O)N[C@@H](CO)C(=O)N[C@@H](CO)C(=O)NCC(=O)N[C@@H](C)C(=O)N1CCC[C@H]1C(=O)N1CCC[C@H]1C(=O)N1CCC[C@H]1C(=O)N[C@@H](CO)C(N)=O [Tirzepatide]
Toxicokinetic: Cmax and AUC versus dose [1]: increase nearly proportionally to the dose | Toxicokinetic: accumulation [1]: no substantial accumulation | Safety Window (based on dosage) [1]: 416 | Safety Window (based on exposure AUClast) [1]: 130 | dose at which decrease of the body weight is observed after the first administration [1]: ≥ 3 mg/kg | MTD ([2]; MTD for 2 weeks, twice a week): 2.08 µmol/kg | MTD [2, 7]: > 10 mg/kg | heart rate recovery time [3]: > 120 h | AUC(0-inf) ([4]; iv, 12.5 nmol/kg): 58500 ± 11900 ng·h/mL | AUC(0-t) ([4]; iv, 12.5 nmol/kg): 57600 ± 11800 ng·h/mL | C0 ([4]; iv, 12.5 nmol/kg): 1170 ± 160 ng/mL | MRT inf ([4]; iv, 12.5 nmol/kg): 74.3 ± 8.76 h | MRT last ([4]; iv, 12.5 nmol/kg): 68.3 ± 8.61 h | half-life ([4]; iv, 12.5 nmol/kg): 59.5 ± 5.22 h | AUC(0-inf) ([4]; sc, 25 nmol/kg): 150000 ± 39100 ng·h/mL | AUC(0-t) ([4]; sc, 25 nmol/kg): 148000 ± 38200 ng·h/mL | Cmax ([4]; sc, 25 nmol/kg): 1300 ± 300 ng/mL | MRT inf ([4]; sc, 25 nmol/kg): 105 ± 7.58 h | MRT last ([4]; sc, 25 nmol/kg): 99.6 ± 6.26 h | Tmax ([4]; sc, 25 nmol/kg): 22.7 ± 10.1 h | half-life ([4]; sc, 25 nmol/kg): 62.5 ± 6.07 h | AUC(0-inf) ([5]; C57, mouse, iv): 12800 ng·h/mL | AUC(0-t) ([5]; C57, mouse, iv): 12700 ng·h/mL | C0 ([5]; C57, mouse, iv): 1900 ng/mL | MRT inf ([5]; C57, mouse, iv): 12 h | MRT last ([5]; C57, mouse, iv): 11.4 h | half-life ([5]; C57, mouse, iv): 10.5 h | AUC(0-inf) ([5]; C57, mouse, sc): 19700 ng·h/mL | AUC(0-t) ([5]; C57, mouse, sc): 19400 ng·h/mL | Cmax ([5]; C57, mouse, sc): 871 ng/mL | MRT inf ([5]; C57, mouse, sc): 15.3 h | MRT last ([5]; C57, mouse, sc): 14.5 h | Tmax ([5]; C57, mouse, sc): 6 h | half-life ([5]; C57, mouse, sc): 9.21 h | AUC(0-inf) ([6]; male, SD): 3.67 ± 1.19 µM·h | AUC(0-t) ([6]; male, SD): 3.61 ± 1.2 µM·h | Cmax ([6]; male, SD): 128 ± 42.8 nM | MRT inf ([6]; male, SD): 20.3 ± 0.755 h | MRT last ([6]; male, SD): 19 ± 0.265 h | Tmax ([6]; male, SD): 7.33 ± 1.15 h | half-life ([6]; male, SD): 11.4 ± 1.79 h

CC[C@H](C)[C@H](NC(=O)C(C)(C)NC(=O)[C@H](Cc1ccc(O)cc1)NC(=O)[C@H](CC(=O)O)NC(=O)[C@H](CO)NC(=O)[C@@H](NC(=O)C(C)(Cc1ccccc1)NC(=O)[C@@H](NC(=O)CNC(=O)[C@H](CCC(=O)O)NC(=O)C(C)(C)NC(=O)[C@@H](N)Cc1ccc(O)cc1)[C@@H](C)O)[C@@H](C)O)C(=O)NC(C)(C)C(=O)N[C@@H](CC(C)C)C(=O)N[C@@H](CC(=O)O)C(=O)N[C@@H](CCCCN)C(=O)N[C@@H](CCC(N)=O)C(=O)N[C@@H](C)C(=O)N[C@@H](CCC(N)=O)C(=O)N[C@@H](C)C(=O)N[C@@H](CCC(=O)O)C(=O)N[C@@H](Cc1ccccc1)C(=O)N[C@H](C(=O)N[C@@H](CCCCNC(=O)COCCOCCNC(=O)COCCOCCNC(=O)CC[C@H](NC(=O)CCCCCCCCCCCCCCCCCCCCC(=O)O)C(=O)O)C(=O)N[C@@H](Cc1c[nH]c2ccccc12)C(=O)N[C@@H](CC(C)C)C(=O)N[C@@H](CC(C)C)C(=O)N[C@@H](CCCCN)C(=O)NCC(=O)NCC(=O)N1CCC[C@H]1C(=O)N[C@@H](CO)C(=O)N[C@@H](CO)C(=O)NCC(=O)N[C@@H](C)C(=O)N1CCC[C@H]1C(=O)N1CCC[C@H]1C(=O)N1CCC[C@H]1C(=O)N[C@@H](CO)C(=O)N[C@@H](CCCCN)C(N)=O)C(C)C (some centres unmarked) [P014]
Toxicokinetic: Cmax and AUC versus dose [1]: increase nearly proportionally to the dose | Toxicokinetic: accumulation [1]: no substantial accumulation | Safety Window (based on dosage) [1]: 1319 | Safety Window (based on exposure AUClast) [1]: 596 | dose at which decrease of the body weight is observed after the first administration [1]: ≥ 1 mg/kg | MTD ([2]; MTD for 2 weeks, twice a week): 1.98 µmol/kg | MTD [2, 7]: > 10 mg/kg | MRT inf ([4]; sc, 25 nmol/kg): 77.4 ± 13.5 h | MRT last ([4]; sc, 25 nmol/kg): 74.2 ± 13.8 h | MRT inf ([5]; mouse, iv): 19.2 h | MRT last ([5]; mouse, iv): 15.7 h | MRT inf ([5]; mouse, sc): 30.3 h | MRT last ([5]; mouse, sc): 22.9 h | MRT inf [6]: 30 ± 1.01 h | MRT last [6]: 26.2 ± 0.781 h
